The Ki is the equilibrium dissociation constant of an inhibitor or competing ligand from its target.

The values that follow come from patent US20060074243A1, “Hydroxamic acid and amide compounds and their use as protease inhibitors” (Pharmacia Corporation, priority 2002, published 2006).

Holding throughout (test): In vitro MMP inhibition analysis (fluorogenic peptide substrate cleavage), Ki
Common to all, as to type: biochemical
What all share (conditions): Table 2

One assay addresses T1, Human recombinant MMP-2 (Homo sapiens, UniProt P08253).
T1 construct: made in house; host or cells: MMP-2-transfected p2AHT2 cells
T1 sequence (P08253 110-660): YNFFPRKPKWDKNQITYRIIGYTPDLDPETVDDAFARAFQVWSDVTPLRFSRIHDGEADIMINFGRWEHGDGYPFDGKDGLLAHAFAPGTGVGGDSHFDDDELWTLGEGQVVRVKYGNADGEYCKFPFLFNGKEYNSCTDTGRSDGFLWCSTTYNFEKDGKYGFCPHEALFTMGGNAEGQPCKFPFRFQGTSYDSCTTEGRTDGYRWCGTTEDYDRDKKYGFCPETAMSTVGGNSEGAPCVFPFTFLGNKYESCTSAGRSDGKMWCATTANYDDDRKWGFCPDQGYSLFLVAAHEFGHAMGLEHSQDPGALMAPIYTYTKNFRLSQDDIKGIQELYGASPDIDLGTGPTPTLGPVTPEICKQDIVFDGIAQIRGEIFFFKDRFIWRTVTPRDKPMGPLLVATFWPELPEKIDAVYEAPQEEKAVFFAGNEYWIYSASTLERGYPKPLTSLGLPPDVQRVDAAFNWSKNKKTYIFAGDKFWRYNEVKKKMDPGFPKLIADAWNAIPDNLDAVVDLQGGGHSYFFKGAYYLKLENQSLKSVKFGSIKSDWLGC
The gist of the method:
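Human recombinant MMP-2 from transfected p2AHT2 cells was activated with APMA or trypsin and incubated 1 h at room temperature with compounds and 4 μM MCA-RPLGL(Dpa)ARER-NH2. Buffer was pH 7.5 Tris/NaCl/CaCl2, and fluorescence was read at ex 330/em 420 nm. Ki was fitted by Morrison's equation without substrate correction.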

The target of a further assay is T2, Human recombinant MMP-9 (Homo sapiens, UniProt P14780).
T2 construct: made in house; host or cells: MMP-9-transfected HT1080 cells (spent media)
T2 sequence (P14780 107-707 limits assumed): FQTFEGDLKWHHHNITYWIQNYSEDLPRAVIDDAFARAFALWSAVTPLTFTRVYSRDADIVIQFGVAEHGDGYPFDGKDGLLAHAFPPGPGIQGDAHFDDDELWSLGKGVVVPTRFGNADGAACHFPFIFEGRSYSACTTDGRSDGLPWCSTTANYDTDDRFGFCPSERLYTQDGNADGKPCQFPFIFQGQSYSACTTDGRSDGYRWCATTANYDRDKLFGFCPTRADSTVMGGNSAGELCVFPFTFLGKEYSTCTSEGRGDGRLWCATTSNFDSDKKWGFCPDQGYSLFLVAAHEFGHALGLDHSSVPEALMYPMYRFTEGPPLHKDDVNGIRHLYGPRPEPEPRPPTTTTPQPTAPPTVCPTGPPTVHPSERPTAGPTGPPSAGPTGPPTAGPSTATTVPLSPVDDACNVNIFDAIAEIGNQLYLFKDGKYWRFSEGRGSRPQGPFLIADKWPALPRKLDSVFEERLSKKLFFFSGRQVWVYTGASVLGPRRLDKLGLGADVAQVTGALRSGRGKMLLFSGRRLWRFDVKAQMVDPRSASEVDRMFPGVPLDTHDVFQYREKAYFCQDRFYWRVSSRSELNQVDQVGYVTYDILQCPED
The gist of the method:
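Recombinant MMP-9 purified from transfected HT1080 cell media, activated with APMA, trypsin or recombinant MMP-3, assayed in Tris buffer pH 7.5 with CaCl2 and 4 μM fluorogenic MCA/Dpa peptide, 1 h at room temperature (ex 330/em 420 nm). Ki from Morrison-equation regression of velocity; substrate at or below Km, uncorrected.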

The target in another assay is T3, Human recombinant MMP-14 (Homo sapiens, UniProt P50281).
T3 construct: The catalytic domain enzyme was expressed in E. coli inclusion bodies, solubilized in urea; made in house
The gist of the method:
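Refolded catalytic domain of MMP-14 expressed in E. coli, activated with APMA or trypsin, incubated 1 h at room temperature with 4 μM MCA-peptide substrate in Tris buffer pH 7.5 with CaCl2. Cleavage rate followed by fluorescence (ex 330/em 420 nm). Ki from Morrison-equation fit; substrate at or below Km, so no substrate correction.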

The structures appear in SMILES notation.

In the case of `COCCN1CCC(C(=O)NO)(S(=O)(=O)c2ccc(-c3cnc(CCC(F)(F)F)cn3)cc2)CC1` [Example 214], the Ki on Human recombinant MMP-2 came out at 2.09 nM; at Human recombinant MMP-9 it was 2.05 nM; at Human recombinant MMP-14, 6980 nM.

Regarding `O=C(NO)C1(S(=O)(=O)c2ccc(-c3cnc(CCC(F)(F)F)cn3)cc2)CCN(C2CC2)CC1` [Example 215], the Ki was found to be 1.15 nM on Human recombinant MMP-2, 1 nM at Human recombinant MMP-9 and 5070 nM on Human recombinant MMP-14.

As to `C#CCN(C)C(=O)c1ccc2cc(-c3ccc(S(=O)(=O)C4(C(=O)NO)CCOCC4)cc3)ccc2c1` [Example 216], the Ki was 2.51 nM at Human recombinant MMP-2, 13.3 nM on Human recombinant MMP-9 and 2550 nM on Human recombinant MMP-14.

For `CCN1CCC(C(=O)NO)(S(=O)(=O)c2ccc(-c3cnc(CCCC(F)(F)F)cn3)cc2)CC1` [Example 217], the Ki on Human recombinant MMP-2 is 9.06 nM; at Human recombinant MMP-9, 5.22 nM; at Human recombinant MMP-14 it was > 10000 nM.

Take `O=C(NO)C1(S(=O)(=O)c2ccc(-c3cnc(CCCC(F)(F)F)cn3)cc2)CCN(C2CC2)CC1` [Example 218]: the Ki at Human recombinant MMP-2 was 1.93 nM; on Human recombinant MMP-9, 0.938 nM; on Human recombinant MMP-14 it was > 10000 nM.

For `Cc1nc(CCc2ccc(-c3ccc(S(=O)(=O)C4(C(=O)NO)CCOCC4)cc3)cc2)no1` [Example 219], the Ki on Human recombinant MMP-2 was determined as 0.588 nM; on Human recombinant MMP-9, 9.25 nM; on Human recombinant MMP-14 it was 1760 nM.

As for `O=C(NCC1CC1)c1ccc2cc(-c3ccc(S(=O)(=O)C4(C(=O)NO)CCOCC4)cc3)ccc2c1` [Example 220], the Ki at Human recombinant MMP-2 is 0.539 nM; at Human recombinant MMP-9, 50.5 nM; at Human recombinant MMP-14, > 2500 nM.

Take `CN(C)C(=O)c1ccc2cc(-c3ccc(S(=O)(=O)C4(C(=O)NO)CCOCC4)cc3)ccc2c1` [Example 221]: the Ki on Human recombinant MMP-2 amounted to 5.61 nM; at Human recombinant MMP-9, 16.7 nM; at Human recombinant MMP-14, 6850 nM.

For `O=C(c1ccc2cc(-c3ccc(S(=O)(=O)C4(C(=O)NO)CCOCC4)cc3)ccc2c1)N1CCOCC1` [Example 222], the Ki was 7.8 nM on Human recombinant MMP-2, 29.5 nM on Human recombinant MMP-9 and > 10000 nM on Human recombinant MMP-14.

Take `O=C(c1ccc2cc(-c3ccc(S(=O)(=O)C4(C(=O)NO)CCOCC4)cc3)ccc2c1)N1CCCCC1` [Example 223]: the Ki on Human recombinant MMP-2 was 11 nM; on Human recombinant MMP-9, 34.3 nM; at Human recombinant MMP-14, > 10000 nM.
